Patent publication US9353152B2, “Induction of the mitochondrial permeability transition” (NewSouth Innovations Pty Limited, priority 2002, dated 2016)
Where two headings read alike, the source gives them in different places. Residues, ends and D or L forms follow the SMILES beside them. *: point of attachment. X2 = O=C(C*)Nc1ccc([As](O)O)cc1; X1 = O=C(C*)Nc1ccccc1[As](O)O

What was measured:
MPTP [1] = target: T1, MPTP (Rattus norvegicus, UniProt Q09073); experiment: Mitochondria swelling assay (MPT induction, decrease in light scattering at 520 nm); type: biochemical; settings: 100 μM GSAO with 3 mM Mg^2+, 100 μM EGTA, 10 μM BKA, 5 μM CsA or 8 mM ADP
T1 construct: Mitochondria were isolated from the livers of ˜250 g male Wistar rats; from tissue; host or cells: rat liver mitochondria (male Wistar rats)
T1 sequence (Q09073 2-298 limits assumed): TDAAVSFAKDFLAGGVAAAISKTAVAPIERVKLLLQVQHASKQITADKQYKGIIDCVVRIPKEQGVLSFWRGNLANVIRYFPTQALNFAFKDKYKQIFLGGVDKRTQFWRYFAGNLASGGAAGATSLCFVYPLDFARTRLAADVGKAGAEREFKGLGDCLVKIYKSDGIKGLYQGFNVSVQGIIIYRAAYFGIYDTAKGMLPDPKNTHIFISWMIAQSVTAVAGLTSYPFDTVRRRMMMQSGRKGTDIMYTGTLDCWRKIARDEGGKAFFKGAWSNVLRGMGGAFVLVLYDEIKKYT

[2] = target: T2, mitochondrial permeability transition pore (Rattus norvegicus, UniProt Q09073); type: biochemical
T2 construct: Mitochondria were isolated from the livers of ˜250 g male Wistar rats; from tissue; host or cells: rat liver mitochondria (male Wistar rats)
T2 sequence (Q09073 2-298 limits assumed): T1 sequence (Q09073 2-298 limits assumed)

MPTP [3] = target: T1, MPTP; type: biochemical

Compound	MPTP Swelling Rate Increase/GSAO* Mean (MPTP [3])	Fold Increase (BAE cells)	IC50 (BAE cells; read-out: IC50 (μM)*) [µM]	further results
Nc1ncnc2c1ncn2[C@@H]1O[C@H](COP(=O)(O)OP(=O)(O)O)[C@@H](O)[C@H]1O [ADP]				blocking of the effect of GSAO on pore opening (MPTP [1]): blocked; blocking of the effect of o-GSAO on pore opening [2]: blocked
CO[C@H](C/C=C\C=C\CC/C=C/C[C@H](C)/C=C/C(=C\C(=O)O)CC(=O)O)/C(C)=C\C=C(/C)C(=O)O [BKA, Bonkrekic acid]				blocking of the effect of GSAO on pore opening (MPTP [1]): blocked
O=C(O)CCC(NC(=O)NC(CSCC(=O)Nc1ccc([As](O)O)cc1)C(=O)O)C(=O)O (stereo not drawn) [Compound 3, retro-HO-Cys-(CH2CONHC6H4-p-As{OH}2)-carbonyl-Glu-OH]	2.4	0.07	122	
N=C(N)NCCC[C@H](N)C(=O)NCC(=O)N[C@@H](CC(=O)O)C(=O)N[C@@H](CSCC(=O)Nc1ccc([As](O)O)cc1)C(=O)O [Compound 6, H-Arg-Gly-Asp-Cys(CH2CONHC6H4-p-As{OH}2)—OH] (H-RGDC(X2)-OH)	4.5	0.45	18.2	
NC(=O)CCC(NC(=O)C(Cc1ccccc1)NC(=O)C(Cc1ccc(O)cc1)NC(=O)C(N)CSCC(=O)Nc1ccc([As](O)O)cc1)C(=O)NC(CC(N)=O)C(=O)NC(CSCC(=O)Nc1ccc([As](O)O)cc1)C(=O)O (stereo not drawn) [Compound 9, H-Cys-(CH2CONHC6H4-p-As{OH}2)-Tyr-Phe-Gln-Asn-Cys-(CH2CONHC6H4-p-As{OH}2)—OH] (H-C(X2)YFQNC(X2)-OH; configuration not given here)		0.64		IC50 (BAE cells; 72 h): 12.9 µM
O=C(CSCCCS(=O)(=O)O)Nc1ccc([As](O)O)cc1 [Compound 10, 3-S—(CH2CONHC6H4-p-As{OH}2)-1-propanesulfonic acid]	2.0	0.21	39	
O=C(O)CCSCC(=O)Nc1ccc([As](O)O)cc1 [Compound 11, 3-S—(CH2CONHC6H4-p-As{OH}2)-1-propionic acid]	1.3	0.05	170	
O=C(O)CC(SCC(=O)Nc1ccc([As](O)O)cc1)C(=O)O (stereo not drawn) [Compound 13, 1-S—(CH2CONHC6H4-p-As{OH}2)-mercaptosuccinic acid]	1.6	0.19	43.3	
O=C(CS[C@@H]1O[C@H](CO)[C@@H](O)[C@H](O)[C@H]1O)Nc1ccc([As](O)O)cc1 [Compound 14, 1-S—(CH2CONHC6H4-p-As{OH}2)-β-D-glucose]	1.1	0.08	106	
NCC(=O)NCC(=O)N[C@@H](CSCC(=O)Nc1ccccc1[As](O)O)C(=O)O [Compound 22, H-Gly-Gly-Cys(CH2CONHC6H4-o-As{OH}2)—OH]	6.9	46.9	0.18	times more active than the corresponding p-arsenoxide analogue (BAE cells): approximately 106 times
CC(C)C(N)C(=O)NC(C(=O)NC(CSCC(=O)Nc1ccccc1[As](O)O)C(=O)NCC(=O)O)C(C)O (stereo not drawn) [Compound 23, H-Val-Thr-Cys(CH2CONHC6H4-o-As{OH}2)-Gly-OH] (H-VTC(X1)G-OH; configuration not given here)	5.4	19.8	0.42	times more active than the corresponding p-arsenoxide analogue (BAE cells): approximately 20 times
O=C(O)CN(CCOCCOCCN(CC(=O)O)CC(=O)O)CC(=O)O [EGTA, ethylene glycol-bis(beta-aminoethyl ether)-N,N,N′N′-tetraacetic acid]				blocking of the effect of GSAO on pore opening (MPTP [1]): blocked; blocking of GSAO-dependent swelling [2]: blocked
